# Measured values reported in patent US12226412B2, “Heteroaryl-ketone fused azadecalin glucocorticoid receptor modulators” (Corcept Therapeutics, Inc., priority 2012, dated 2025).
# Read-outs that look alike come from different tables or passages of the source.
# Assays:
# [1] = target: T1, human recombinant GR (Homo sapiens, UniProt P04150); experiment: Human glucocorticoid receptor (GR) fluorescence polarisation (FP) binding assay
# T1 construct: purchased PanVera P2812
# T1 sequence (P04150 1-777): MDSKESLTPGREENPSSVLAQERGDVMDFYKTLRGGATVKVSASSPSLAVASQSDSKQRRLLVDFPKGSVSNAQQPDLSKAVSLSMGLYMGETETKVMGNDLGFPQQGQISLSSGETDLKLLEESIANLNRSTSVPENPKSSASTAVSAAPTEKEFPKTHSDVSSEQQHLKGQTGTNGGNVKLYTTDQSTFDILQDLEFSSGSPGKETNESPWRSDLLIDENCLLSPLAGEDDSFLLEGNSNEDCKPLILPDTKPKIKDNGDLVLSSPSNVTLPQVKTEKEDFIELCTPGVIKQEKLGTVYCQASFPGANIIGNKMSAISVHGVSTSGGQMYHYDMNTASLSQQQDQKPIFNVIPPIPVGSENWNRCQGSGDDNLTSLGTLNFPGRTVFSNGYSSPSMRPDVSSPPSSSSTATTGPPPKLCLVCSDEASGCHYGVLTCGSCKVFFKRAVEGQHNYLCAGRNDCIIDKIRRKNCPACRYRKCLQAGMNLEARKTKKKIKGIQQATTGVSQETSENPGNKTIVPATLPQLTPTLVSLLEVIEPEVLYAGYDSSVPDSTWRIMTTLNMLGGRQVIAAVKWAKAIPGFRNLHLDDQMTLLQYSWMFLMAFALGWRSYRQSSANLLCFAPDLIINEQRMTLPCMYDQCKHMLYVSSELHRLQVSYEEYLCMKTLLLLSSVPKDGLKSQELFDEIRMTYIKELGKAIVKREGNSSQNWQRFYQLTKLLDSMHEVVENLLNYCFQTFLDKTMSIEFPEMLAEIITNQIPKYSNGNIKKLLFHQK
# How it was run: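 Competition fluorescence polarisation: 0.5 nM GS Red labelled glucocorticoid and 1 nM recombinant human GR with 8-point half-log compound series, 1% DMSO, 4 h room temperature, potassium phosphate pH 7.4 buffer with molybdate, EDTA, DTT. Affinity derived from the drop in polarisation, normalised to blank wells.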
# [2] = system: induction of TAT by dexamethasone in HepG2 cells; experiment: HepG2 tyrosine aminotransferase (TAT) assay; type: cell-based, human
# [3] = human recombinant GR, fluorescence polarisation binding assay, read-out: GR binding
# [4] = HepG2 cells, challenge of 100 nM dexamethasone, Ki from IC50 by Cheng and Prusoff equation
"Ki [1, 3]",Structure (SMILES),Ki [1],Ki [2],"Ki [2, 4]"
,"O=C(c1ccccn1)[C@]12Cc3cnn(-c4ccc(F)cc4)c3C=C1CCN(S(=O)(=O)c1ccc(F)cc1)C2 [Example 2, (R)-(1-(4-fluorophenyl)-6-((4-fluorophenyl)sulfonyl)-4,4a,5,6,7,8-hexahydro-1H-pyrazolo[3,4-g]isoquinolin-4a-yl)(pyridin-2-yl)methanone]",< 0.5 nM,< 20 nM,
< 0.5 nM,"CCc1ccnc(C(=O)[C@]23Cc4cnn(-c5ccc(F)cc5)c4C=C2CCN(S(=O)(=O)c2cccc(C#N)c2)C3)c1 [Example 11AU, (R)-3-((4a-(4-ethylpicolinoyl)-1-(4-fluorophenyl)-4a,5,7,8-tetrahydro-1H-pyrazolo [3,4-g]isoquinolin-6 (4H)-yl)sulfonyl)benzonitrile]",,,< 20 nM
0.5 to 1 nM,"O=C(c1nccs1)[C@]12Cc3cnn(-c4ccc(F)cc4)c3C=C1CCN(S(=O)(=O)c1ccc(N3CCCC3)cc1)C2 [Example 6, (R)-(1-(4-fluorophenyl)-6-((4-(pyrrolidin-1-yl)phenyl)sulfonyl)-4,4a,5,6,7,8-hexahydro-1H-pyrazolo[3,4-g]isoquinolin-4a-yl)(thiazol-2-yl)methanone]",,,20 to 100 nM
,"O=C(c1cnccn1)[C@]12Cc3cnn(-c4ccc(F)cc4)c3C=C1CCN(S(=O)(=O)c1ccc(C(F)(F)F)cc1)C2 [Example 5E, (R)-(1-(4-fluorophenyl)-6-((4-(trifluoromethyl)phenyl)sulfonyl)-4,4a,5,6,7,8-hexahydro-1H-pyrazolo[3,4-g]isoquinolin-4a-yl)(pyrazin-2-yl)methanone]",< 0.5 nM,20 to 100 nM,
< 0.5 nM,"O=C(c1ccccn1)[C@]12Cc3cnn(-c4ccc(F)cc4)c3C=C1CCN(S(=O)(=O)c1cc(F)c(F)c(F)c1)C2 [Example 11Q, (R)-(1-(4-fluorophenyl)-6-((3,4,5-trifluorophenyl)sulfonyl)-4,4a,5,6,7,8-hexahydro-1H-pyrazolo[3,4-g]isoquinolin-4a-yl)(pyridin-2-yl)methanone]",,,< 20 nM
< 0.5 nM,"Cn1ccc(S(=O)(=O)N2CCC3=Cc4c(cnn4-c4ccc(F)cc4)C[C@]3(C(=O)c3cc(C(F)(F)F)ccn3)C2)n1 [Example 11BI, (R)-(1-(4-fluorophenyl)-6-((1-methyl-1H-pyrazol-3-yl)sulfonyl)-4,4a,5,6,7,8-hexahydro-1H-pyrazolo[3,4-g]isoquinolin-4a-yl)(4-(trifluoromethyl)pyridin-2-yl)methanone]",,,< 20 nM
< 0.5 nM,"CCCn1ncc(S(=O)(=O)N2CCC3=Cc4c(cnn4-c4ccc(F)cc4)C[C@]3(C(=O)c3nccs3)C2)n1 (single isomer, unassigned) [Example 12AA]",,,20 to 100 nM
> 1 nM,"Cc1cnc(C(=O)[C@]23Cc4cnn(-c5ccc(F)cc5)c4C=C2CCN(S(=O)(=O)c2ccc(F)c(F)c2)C3)s1 [Example 12Q, (R)-(6-((3,4-difluorophenyl)sulfonyl)-1-(4-fluorophenyl)-4,4a,5,6,7,8-hexahydro-1H-pyrazolo[3,4-g]isoquinolin-4a-yl)(5-methylthiazol-2-yl)methanone]",,,< 20 nM
< 0.5 nM,"Cn1cc(S(=O)(=O)N2CCC3=Cc4c(cnn4-c4ccc(F)cc4)C[C@]3(C(=O)c3ccccn3)C2)cn1 [Example 2M, (R)-(1-(4-fluorophenyl)-6-((1-methyl-1H-pyrazol-4-yl)sulfonyl)-4,4a,5,6,7,8-hexahydro-1H-pyrazolo[3,4-g]isoquinolin-4a-yl)(pyridin-2-yl)methanone]",,,20 to 100 nM
0.5 to 1 nM,"COc1cccc(S(=O)(=O)N2CCC3=Cc4c(cnn4-c4ccc(F)cc4)C[C@]3(C(=O)c3nccs3)C2)c1 [Example 12B, (R)-(1-(4-fluorophenyl)-6-((3-methoxyphenyl)sulfonyl)-4,4a,5,6,7,8-hexahydro-1H-pyrazolo[3,4-g]isoquinolin-4a-yl)(thiazol-2-yl)methanone]",,,20 to 100 nM
